Assay results as given in patent US10301302B2, “Crystalline forms of N-(2-chloro-6-methy]phenvn-2-[F6-[4-(2-hvdroxvethvl)-L-piperazin-vil-2-methvil-4-pvrimidinvllaminol-5-thiazolecarboxamide and their process thereof” (MSN LABORATORIES PRIVATE LIMITED, priority 2015, dated 2019).

Assays:
[1] = Solubility of the 1,2-propanediol solvate (stated advantage, no method given); type: physicochemical; settings: advantageous property found by the inventors; no solvent or value given
[2] = cited from earlier work

Cc1nc(Nc2ncc(C(=O)Nc3c(C)cccc3Cl)s2)cc(N2CCN(CCO)CC2)n1 [1,2-propanediol solvate, 1,2-Propanediol solvate of N-(2-chloro-6-methylphenyl)-2-[[6-[4-(2-hydroxyethyl)-1-piperazinyl]-2-methyl-4-pyrimidinyl]amino]-5-thiazolecarboxamide]
solubility [1]: good solubility

Cc1nc(Nc2ncc(C(=O)Nc3c(C)cccc3Cl)s2)cc(N2CCN(CCO)CC2)n1 [Dasatinib, N-(2-chloro-6-methylphenyl)-2-[[6-[4-(2-hydroxyethyl)-1-piperazinyl]-2-methyl-4-pyrimidinyl]amino]-5-thiazole carboxamide]
solubility in alcoholic solvents ([2]; alcoholic solvents like ethanol and methanol): slightly soluble | solubility in water ([2]; water): insoluble
